Assay [1] concerns the target T1, cholesterol ester transfer protein (CETP) (Homo sapiens, UniProt P11597).
T1 sequence (P11597 18-493): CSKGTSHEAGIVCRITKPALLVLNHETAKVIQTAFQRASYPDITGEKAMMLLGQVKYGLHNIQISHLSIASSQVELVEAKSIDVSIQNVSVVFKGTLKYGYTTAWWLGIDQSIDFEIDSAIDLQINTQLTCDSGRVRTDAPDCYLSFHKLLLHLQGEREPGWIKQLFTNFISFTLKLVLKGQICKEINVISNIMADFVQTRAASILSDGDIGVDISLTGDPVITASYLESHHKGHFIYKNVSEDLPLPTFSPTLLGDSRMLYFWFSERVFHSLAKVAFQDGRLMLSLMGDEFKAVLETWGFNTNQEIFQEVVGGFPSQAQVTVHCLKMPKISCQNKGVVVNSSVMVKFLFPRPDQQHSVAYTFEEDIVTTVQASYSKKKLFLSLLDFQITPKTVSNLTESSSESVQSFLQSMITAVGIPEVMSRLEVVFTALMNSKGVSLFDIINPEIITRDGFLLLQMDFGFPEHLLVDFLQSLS
In words: CETP inhibitory effect. The class given is biochemical. Conditions: no method or values printed.

Assay [2] has as its system SREBP1c mRNA. Briefly: Expression level of SREBP1c mRNA in HepG2 cells by real-time quantitative RT-PCR. The class given is cell-based, human. The note with it: 0.1, 1, 10 mM DMSO solutions added at 1 to 1000, corrected by β-Actin mRNA, FIG. 2.
Procedure: The test compound 2 was added to the HepG2 cells of human liver cancer cell line, cultured for 24 hours, and then the expression level of SREBP1c mRNA was measured by real-time quantitative RT-PCR. More specifically, the HepG2 cells were seeded on a 24-well plate at a concentration of 2×10^5 cells/well, and cultured overnight. The test compound 2 was dissolved in dimethyl sulf oxide (DMSO) at concentrations of 0.1 mM, 1 mM, and 10 mM, and added to the culture solution at the rate of 1 to 1000. The mixture was cultured for 8 hours in a CO2 incubator at 37° C., and then 500 μL of ISOGEN (Nippon Gene Co., Ltd., catalogue No. 31-02501) was added, and the total RNA was extracted. […] The expression level of human SREBP1c mRNA was measured using a TaqMan probe 5′-[sequence]-3′ (SEQ ID NO. 3), a sense primer: 5′-[sequence]-3′ (SEQ ID NO. 4), and an antisense primer 5′-[sequence]-3′ (SEQ ID NO. 5), which are specific to human SREBP1c, and TaqMan Fast Universal PCR Master Mix (Applied Biosystems, catalogue No. 4367846). […]
The measurement value was corrected by the expression level of β-Actin mRNA. The expression level of SREBP1c mRNA in the cells mixed with DMSO alone was set at 1, and the expression level of SREBP1c mRNA in the cells mixed with the test compound 2 was calculated as relative value.
Assay [3] has as its system SCD-1 mRNA. In words: Expression level of SCD-1 mRNA in HepG2 cells by real-time quantitative RT-PCR. The class given is cell-based, human. Conditions: 0.1, 1, 10 mM DMSO solutions added at 1 to 1000, corrected by β-Actin mRNA, FIG. 3.
Procedure: More specifically, the HepG2 cells were seeded on a 24-well plate at a concentration of 2×10^5 cells/well, and cultured overnight. […] The mixture was cultured for 8 hours in a CO2 incubator at 37° C., and then 500 μL of ISOGEN (Nippon Gene Co., Ltd., catalogue No. 31-02501) was added, and the total RNA was extracted. From the extracted total RNA, cDNA was synthesized using High Capacity cDNA Reverse Transcription kit (Applied Biosystems, catalogue No. 4368813). The expression level of human SCD-1 was measured using a primer 5′-[sequence]-3′ (SEQ ID NO. 6), an antisense primer 5′-[sequence]-3′ (SEQ ID NO. 7), which are specific to human SCD-1, and Fast SYBR Green master mix (Applied Biosystems, catalogue No. 4385614). The measurement instrument was 7900HT Fast Realtime PCR system.
The measurement value was corrected by the expression level of β-Actin mRNA.

The values below come from patent US20150320748A1, “AGENT FOR INHIBITING EXPRESSION OF LIPID METABOLISM RELATED MRNA” (KOWA CO., LTD., priority 2011, published 2015).

On to `COc1cc(F)c(C(C)C)cc1-c1ccc(C(F)(F)F)cc1CN1C(=O)O[C@H](c2cc(C(F)(F)F)cc(C(F)(F)F)c2)[C@@H]1C` [Anacetrapib, (4S,5R) -5-[3,5-bis(trifluoromethyl)phenyl]-3-({2-[4-fluoro-2-methoxy-5-(propane-2-yl)phenyl]-5-(trifluoromethyl)phenyl}methyl)-4-methyl-1,3-oxazolidine-2-one, reference compound], for which the “CETP inhibitory effect (test compound 2 compared with Anacetrapib)” value in assay [1] was “equal”.

Consider `CCN(C[C@H]1CC[C@H](CC(=O)O)CC1)c1ccc(C(F)(F)F)cc1CN(c1ncc(OCCS(C)(=O)=O)cn1)[C@@H](C)c1cc(C(F)(F)F)cc(C(F)(F)F)c1` [compound 2], for which the “decrease of the expression level of SREBP1c mRNA (relative value, DMSO alone = 1)” value in assay [2] is on record as “evidently stronger than that of Anacetrapib”. In assay [3], the “decrease of the expression level of SCD-1 mRNA (relative value, DMSO alone = 1)” value is on record as “evidently stronger than that of Anacetrapib”. Further, in assay [1], the “CETP inhibitory effect (test compound 2 compared with Anacetrapib)” value is “equal”.
